The target of assay [1] is other PRDX family members and a panel of kinases. As to the kind of experiment: Kinase selectivity assay (whole panel). The format is biochemical. To be noted: whole panel of Table S1; read-out: IC50 against other PRDX family members and a panel of kinases. The protocol:
(§1) The selectivity of CP1 for PRDX1 was evaluated through kinase selectivity assays against other PRDX family members and a panel of kinases. The experiments were conducted by ICE Biosciences (Beijing, China).

For assay [2], the system named is BEAS-2B normal lung cells. As to the kind of experiment: MTT assay. The following applies: Homo sapiens, MTT, 72 h, normal lung cells, mean ± SD, n = 3, read-out: IC50 (μM) BEAS-2B. In kind it is cell-based. The protocol:
(§2) Cells were seeded in 96-well plates at 5 ×10^4 cells/well and cultured overnight at 37°C under 5% CO2. After medium removal, cells were treated with serially diluted compounds (0.04–163.84 μM) or vehicle control (0.1% DMSO) and incubated for 72 h. Subsequently, 20 μL of MTT solution (5 mg/mL) was added to each well, and incubation was continued for 4 h. Add 150 μL of DMSO and shake for 10 min to fully dissolve the crystal. Finally, the absorbance was measured at 570 nm using a microplate reader. Cell viability was calculated as (ODcompound - ODblank)/(ODvehicle - ODblank) × 100%. The half inhibitory concentration (IC50) was calculated from the dose-response curve using Prism 8.0 software. Three independent replicate experiments were performed.
In general terms: Formazan colour is commonly taken as a measure of viable cells.

Assay [3] concerns HepG2 (hepatocellular carcinoma cells). As to the kind of experiment: MTT assay. In kind it is cell-based. The following applies: Homo sapiens, HepG2; MTT, 72 h; mean ± SD, n = 3; read-out: IC50 (μM) HepG2. The protocol: as §2
For the next assay, the system named is LO2 (normal liver cells). Nature of the assay: MTT assay. In kind it is cell-based. The following applies: Homo sapiens; MTT, 72 h; normal cells; mean ± SD, n = 3; read-out: IC50 (μM) LO2. The protocol: as §2
Assay [4] relates to HEK293 (embryonic kidney cells). Nature of the assay: MTT assay. The format is cell-based. To be noted: Homo sapiens, HEK293; MTT, 72 h; normal cells; mean ± SD, n = 3; read-out: IC50 (μM) HEK293. The protocol:
as §2

In another assay the test system is A549 lung cancer cells. Nature of the assay: MTT assay. The format is cell-based. As to the method: as §2
Assay [5] concerns MCF-7 (breast adenocarcinoma cells). As to the kind of experiment: MTT assay. In kind it is cell-based. The following applies: Homo sapiens, MCF7; MTT, 72 h; mean ± SD, n = 3; read-out: IC50 (μM) MCF-7. The protocol:
as §2

In assay [6] the test system is HaCaT (immortalised keratinocytes). Nature of the assay: MTT assay. In kind it is cell-based. To be noted: Homo sapiens, 72 h, normal cells, mean ± SD, n = 3. The protocol:
as §2

Assay [7] addresses T1, PRDX1 (Homo sapiens, UniProt Q06830).
T1 sequence (Q06830 1-199): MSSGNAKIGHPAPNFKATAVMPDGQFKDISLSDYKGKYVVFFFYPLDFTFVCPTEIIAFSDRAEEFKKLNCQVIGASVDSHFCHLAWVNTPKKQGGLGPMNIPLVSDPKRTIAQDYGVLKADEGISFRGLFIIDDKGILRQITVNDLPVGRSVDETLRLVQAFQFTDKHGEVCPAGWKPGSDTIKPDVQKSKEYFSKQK
As to the kind of experiment: MST assay. In kind it is binding. The following applies: MST; mean ± SD, n = 3; read-out: PRDX1 (Kd). As to the method: The MST assays were carried out in a buffer composed of 50 mM Tris, 200 mM NaCl, and 0.1% (v/v) TWEEN20. PRDX1 was tagged with the MO-L011 protein labeling kit (RED-NHS second Generation). The diluted compounds were combined with the tagged PRDX1 protein and allowed to stand at room temperature for 5 minutes. Subsequently, the reaction mixture was loaded into capillaries, and measurements were taken using a Monolith NT.115 instrument.

The target of assay [8] is T1, PRDX1. Nature of the assay: PRDX1 inhibition assay. To be noted: mean ± SD, n = 3; read-out: PRDX1 (IC50). The format is biochemical. The protocol: The cells were purchased from the American Type Culture Collection (ATCC) (Manassas, VA, United States). Cells were cultured in RPMI-1640 medium supplemented with 10% FBS, 50 units/mL penicillin, and 50 μg/mL streptomycin, and maintained at 37°C in a 5% CO2 humidified culture environment. CPs 1-5 were purchased from WuXi AppTec. Human PRDX1 proteins were purchased from Abcam (Cambridge, MA, United States).
First, […] buffer (20 mM HEPES, 5 mM EDTA, 5 μM cofactor A, 2 μM cofactor B, and 300 μM NADPH) was added to a 96-well plate. The test compounds at the designated concentration (0.02–2 nM, with 1.5-fold dilution) were incubated with PRDX1 at 37°C for 25 min, and then the co-incubated mixture was added to each well to a final concentration of 200 nM PRDX1. Finally, 200 μM H2O2 was added to each well to initiate the enzyme reaction cycle. The oxidation of NADPH was determined by the absorption value at 340 nm. Read plate values for 90 s for one cycle and repeat for 20 cycles. The positive control (celastrol, concentrations 0.06–64 μM) was tested in parallel under identical experimental conditions. Three independent replicate experiments were performed.

For a further assay, the target named is T2, FLT3 (Homo sapiens, UniProt P36888).
T2 construct: assay run by ICE Biosciences (Beijing, China)
Nature of the assay: Kinase selectivity assay. The format is biochemical. To be noted: target FLT3; read-out: CP1 IC50. The protocol:
as §1

For the next assay, the target named is T3, FGFR4 (Homo sapiens, UniProt P22455).
T3 construct: assay run by ICE Biosciences (Beijing, China)
Nature of the assay: Kinase selectivity assay. The format is biochemical. The following applies: target FGFR4; read-out: CP1 IC50. The protocol: as §1

In the next assay the target is LYN (Homo sapiens, UniProt P07948). Nature of the assay: Kinase selectivity assay. The format is biochemical. The following applies: target LYN; read-out: CP1 IC50. The protocol: as §1
Another assay has as its target T4, FGFR1 (Homo sapiens, UniProt P11362).
T4 construct: assay run by ICE Biosciences (Beijing, China)
As to the kind of experiment: Kinase selectivity assay. The format is biochemical. The following applies: target FGFR1; read-out: CP1 IC50. As to the method:
as §1

A further assay has as its target KDR (Homo sapiens, UniProt P35968). Nature of the assay: Kinase selectivity assay. The format is biochemical. The following applies: target KDR; read-out: CP1 IC50. The protocol:
as §1

The next assay has as its target EPHB4 (Homo sapiens, UniProt P54760). As to the kind of experiment: Kinase selectivity assay. In kind it is biochemical. To be noted: target EPHB4; read-out: CP1 IC50. As to the method: as §1
For a further assay, the target named is T5, ZAP70 (Homo sapiens, UniProt P43403).
T5 construct: ICE Biosciences (Beijing, China), a contract laboratory that ran the assay
As to the kind of experiment: Kinase selectivity assay. The format is biochemical. To be noted: target ZAP70; read-out: CP1 IC50. As to the method: as §1

Another assay concerns the target T6, PTK2 (Homo sapiens, UniProt Q05397).
T6 construct: assay run by ICE Biosciences (Beijing, China)
As to the kind of experiment: Kinase selectivity assay. The format is biochemical. To be noted: target PTK2; read-out: CP1 IC50. The protocol: as §1

Chain of EPHB4 (P54760 16-987): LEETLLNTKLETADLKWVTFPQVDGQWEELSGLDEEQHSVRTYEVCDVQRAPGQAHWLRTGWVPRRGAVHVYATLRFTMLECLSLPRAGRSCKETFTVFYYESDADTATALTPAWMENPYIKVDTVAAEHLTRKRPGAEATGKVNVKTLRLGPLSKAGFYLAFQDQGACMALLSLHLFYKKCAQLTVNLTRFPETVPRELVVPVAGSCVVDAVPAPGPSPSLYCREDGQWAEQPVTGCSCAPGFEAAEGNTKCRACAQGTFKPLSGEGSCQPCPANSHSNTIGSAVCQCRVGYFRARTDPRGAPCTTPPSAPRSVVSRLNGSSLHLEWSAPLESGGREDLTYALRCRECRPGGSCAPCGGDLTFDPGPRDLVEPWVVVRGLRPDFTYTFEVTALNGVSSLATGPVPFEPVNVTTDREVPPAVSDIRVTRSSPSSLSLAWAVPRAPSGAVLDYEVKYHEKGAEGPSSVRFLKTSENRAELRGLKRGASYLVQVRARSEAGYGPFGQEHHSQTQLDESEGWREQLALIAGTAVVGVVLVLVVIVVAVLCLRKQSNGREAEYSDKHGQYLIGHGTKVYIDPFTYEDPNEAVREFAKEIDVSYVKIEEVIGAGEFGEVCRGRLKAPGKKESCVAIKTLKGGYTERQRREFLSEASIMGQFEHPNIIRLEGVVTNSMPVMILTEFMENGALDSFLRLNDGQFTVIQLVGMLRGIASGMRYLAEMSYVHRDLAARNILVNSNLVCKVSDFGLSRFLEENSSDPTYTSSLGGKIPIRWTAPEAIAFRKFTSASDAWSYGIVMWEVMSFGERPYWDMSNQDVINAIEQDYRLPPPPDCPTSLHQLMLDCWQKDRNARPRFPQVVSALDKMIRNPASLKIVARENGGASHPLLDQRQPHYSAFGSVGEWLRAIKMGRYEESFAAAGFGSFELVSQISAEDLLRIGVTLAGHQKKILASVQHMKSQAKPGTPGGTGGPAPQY
T2 sequence (P36888 27-993): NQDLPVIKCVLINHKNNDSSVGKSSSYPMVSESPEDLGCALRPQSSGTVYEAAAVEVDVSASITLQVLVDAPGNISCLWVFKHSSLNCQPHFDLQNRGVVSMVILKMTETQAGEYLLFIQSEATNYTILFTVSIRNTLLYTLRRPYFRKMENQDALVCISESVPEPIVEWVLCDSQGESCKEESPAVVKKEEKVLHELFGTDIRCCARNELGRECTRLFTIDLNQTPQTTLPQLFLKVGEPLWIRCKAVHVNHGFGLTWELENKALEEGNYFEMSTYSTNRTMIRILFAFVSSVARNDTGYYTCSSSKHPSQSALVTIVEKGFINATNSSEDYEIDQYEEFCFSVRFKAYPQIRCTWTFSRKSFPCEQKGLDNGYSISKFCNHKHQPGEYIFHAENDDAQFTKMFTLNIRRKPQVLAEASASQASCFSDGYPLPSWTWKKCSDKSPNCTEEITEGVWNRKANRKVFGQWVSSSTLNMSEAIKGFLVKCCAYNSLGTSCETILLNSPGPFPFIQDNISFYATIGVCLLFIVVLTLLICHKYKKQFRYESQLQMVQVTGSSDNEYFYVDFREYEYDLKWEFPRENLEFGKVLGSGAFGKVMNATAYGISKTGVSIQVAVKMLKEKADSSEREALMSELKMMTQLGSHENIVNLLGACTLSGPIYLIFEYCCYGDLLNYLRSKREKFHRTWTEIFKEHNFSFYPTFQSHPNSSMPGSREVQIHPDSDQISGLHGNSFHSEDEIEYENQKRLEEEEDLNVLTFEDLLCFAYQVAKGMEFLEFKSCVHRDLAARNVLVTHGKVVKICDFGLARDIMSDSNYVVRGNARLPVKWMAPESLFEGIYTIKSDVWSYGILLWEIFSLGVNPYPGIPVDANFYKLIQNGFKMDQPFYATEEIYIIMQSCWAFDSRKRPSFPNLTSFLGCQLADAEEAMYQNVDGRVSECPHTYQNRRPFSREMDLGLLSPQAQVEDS
T4 sequence (P11362 22-822): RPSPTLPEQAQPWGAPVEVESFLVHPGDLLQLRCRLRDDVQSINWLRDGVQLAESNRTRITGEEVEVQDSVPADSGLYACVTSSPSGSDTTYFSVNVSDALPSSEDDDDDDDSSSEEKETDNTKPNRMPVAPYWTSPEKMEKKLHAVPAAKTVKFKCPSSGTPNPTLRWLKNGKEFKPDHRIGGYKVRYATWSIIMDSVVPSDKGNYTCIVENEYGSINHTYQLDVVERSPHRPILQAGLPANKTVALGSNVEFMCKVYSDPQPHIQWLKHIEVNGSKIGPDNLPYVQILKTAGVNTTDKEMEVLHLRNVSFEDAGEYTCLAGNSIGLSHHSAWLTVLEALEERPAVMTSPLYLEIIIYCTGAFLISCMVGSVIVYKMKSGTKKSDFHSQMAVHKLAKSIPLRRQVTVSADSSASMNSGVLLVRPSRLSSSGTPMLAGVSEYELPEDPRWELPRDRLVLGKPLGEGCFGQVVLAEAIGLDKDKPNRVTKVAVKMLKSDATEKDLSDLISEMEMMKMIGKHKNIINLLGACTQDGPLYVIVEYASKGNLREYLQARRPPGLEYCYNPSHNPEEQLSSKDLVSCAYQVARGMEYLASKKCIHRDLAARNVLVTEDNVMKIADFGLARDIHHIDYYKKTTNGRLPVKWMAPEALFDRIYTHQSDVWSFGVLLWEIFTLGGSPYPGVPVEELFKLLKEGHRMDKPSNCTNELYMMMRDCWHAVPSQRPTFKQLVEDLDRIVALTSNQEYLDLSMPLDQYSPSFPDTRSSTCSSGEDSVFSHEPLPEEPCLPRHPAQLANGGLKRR
T6 sequence (Q05397 whole entry): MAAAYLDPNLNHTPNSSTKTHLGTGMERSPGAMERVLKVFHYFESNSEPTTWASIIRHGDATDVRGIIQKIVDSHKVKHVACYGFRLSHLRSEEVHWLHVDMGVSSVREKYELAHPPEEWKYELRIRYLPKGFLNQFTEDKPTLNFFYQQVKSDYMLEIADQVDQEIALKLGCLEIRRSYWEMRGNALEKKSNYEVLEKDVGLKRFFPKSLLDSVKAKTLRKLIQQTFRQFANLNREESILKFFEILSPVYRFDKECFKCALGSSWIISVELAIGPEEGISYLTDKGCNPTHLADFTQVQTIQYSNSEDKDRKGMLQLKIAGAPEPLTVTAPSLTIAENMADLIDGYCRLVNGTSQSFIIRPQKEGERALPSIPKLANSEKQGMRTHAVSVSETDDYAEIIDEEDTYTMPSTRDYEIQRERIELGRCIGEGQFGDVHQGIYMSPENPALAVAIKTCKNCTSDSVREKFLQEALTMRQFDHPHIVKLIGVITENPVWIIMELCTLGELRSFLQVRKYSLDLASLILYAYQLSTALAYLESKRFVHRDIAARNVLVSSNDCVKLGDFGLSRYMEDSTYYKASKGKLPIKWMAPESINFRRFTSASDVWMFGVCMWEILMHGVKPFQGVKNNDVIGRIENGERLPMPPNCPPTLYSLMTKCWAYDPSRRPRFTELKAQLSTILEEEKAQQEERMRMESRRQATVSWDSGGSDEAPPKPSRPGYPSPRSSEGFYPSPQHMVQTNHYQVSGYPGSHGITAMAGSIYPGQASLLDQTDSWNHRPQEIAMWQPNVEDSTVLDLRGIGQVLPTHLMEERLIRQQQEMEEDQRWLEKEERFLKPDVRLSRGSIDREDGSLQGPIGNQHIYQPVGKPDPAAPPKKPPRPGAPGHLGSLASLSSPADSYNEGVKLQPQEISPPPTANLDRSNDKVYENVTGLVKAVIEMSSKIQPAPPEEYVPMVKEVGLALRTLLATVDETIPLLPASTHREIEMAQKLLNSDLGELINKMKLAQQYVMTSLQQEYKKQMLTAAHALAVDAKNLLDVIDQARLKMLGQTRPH
Chain of KDR (P35968 20-1356): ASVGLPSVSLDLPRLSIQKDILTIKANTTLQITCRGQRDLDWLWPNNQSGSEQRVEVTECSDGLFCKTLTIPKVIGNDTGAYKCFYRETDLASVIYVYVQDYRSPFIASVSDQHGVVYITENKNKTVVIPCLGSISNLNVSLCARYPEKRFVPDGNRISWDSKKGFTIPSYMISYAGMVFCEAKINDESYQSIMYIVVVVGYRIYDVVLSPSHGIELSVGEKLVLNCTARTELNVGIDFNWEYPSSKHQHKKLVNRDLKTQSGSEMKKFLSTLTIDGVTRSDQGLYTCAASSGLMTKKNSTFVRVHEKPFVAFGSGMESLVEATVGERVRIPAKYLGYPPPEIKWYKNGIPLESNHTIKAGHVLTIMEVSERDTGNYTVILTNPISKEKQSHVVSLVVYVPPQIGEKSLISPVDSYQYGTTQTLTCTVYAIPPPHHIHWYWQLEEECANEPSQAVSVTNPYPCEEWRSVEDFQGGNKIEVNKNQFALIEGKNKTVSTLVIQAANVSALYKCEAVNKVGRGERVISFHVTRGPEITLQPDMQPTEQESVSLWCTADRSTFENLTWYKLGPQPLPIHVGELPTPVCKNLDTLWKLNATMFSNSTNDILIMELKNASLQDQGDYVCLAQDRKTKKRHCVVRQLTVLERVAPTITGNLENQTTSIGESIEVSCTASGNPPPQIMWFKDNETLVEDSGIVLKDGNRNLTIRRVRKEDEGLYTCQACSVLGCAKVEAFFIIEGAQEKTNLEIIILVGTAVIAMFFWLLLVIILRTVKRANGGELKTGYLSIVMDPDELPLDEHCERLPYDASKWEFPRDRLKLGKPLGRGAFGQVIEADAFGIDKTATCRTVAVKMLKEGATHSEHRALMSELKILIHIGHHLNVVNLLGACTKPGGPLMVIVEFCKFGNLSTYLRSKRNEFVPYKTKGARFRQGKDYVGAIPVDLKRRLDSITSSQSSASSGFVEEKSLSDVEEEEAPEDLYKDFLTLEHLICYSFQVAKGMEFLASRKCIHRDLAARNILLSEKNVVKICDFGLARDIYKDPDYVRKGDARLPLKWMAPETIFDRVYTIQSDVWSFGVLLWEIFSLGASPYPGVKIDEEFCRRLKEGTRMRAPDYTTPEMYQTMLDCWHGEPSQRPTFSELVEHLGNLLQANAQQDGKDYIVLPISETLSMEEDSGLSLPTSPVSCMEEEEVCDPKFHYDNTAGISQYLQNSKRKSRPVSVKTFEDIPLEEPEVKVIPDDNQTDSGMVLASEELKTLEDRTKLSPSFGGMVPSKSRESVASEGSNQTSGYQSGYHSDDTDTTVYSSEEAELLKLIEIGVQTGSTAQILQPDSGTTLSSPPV

Regarding `CC1=C(CC(=O)/C=C/c2cccc(CO)c2)C(=O)C=C2C1=CC=C1[C@@]2(C)CC[C@@]2(C)C3C[C@](C)(C(=O)CCc4nc(C(O)C(O)O)c(C)nc4C)CC[C@]3(C)CC[C@]12C` (stereo partly shown) [CP1], the IC50 in assay [1] is above 30 µM; in assay [2], above 100 µM; in [3], 0.25 ± 0.02 µM; in the assay on LO2 (normal liver cells) it was above 100 µM; in [4] it was above 100 µM; with A549 lung cancer cells (Homo sapiens, A549, MTT, 72 h, mean ± SD, n = 3, read-out: IC50 (μM) A549), 0.22 ± 0.01 µM. The IC50 in assay [5] was 0.27 ± 0.01 µM; in assay [6], above 100 µM; on PRDX1 [8], 0.08 ± 0.01 nM; on FLT3 it was above 30 µM; at FGFR4, above 30 µM; on LYN it was above 30 µM. In addition, the IC50 at FGFR1, at KDR, on EPHB4, on ZAP70 and on PTK2 was above 30 µM each time. For the same compound, the “improvement of antiproliferative activity against A549 cells compared to celastrol” value in the assay with A549 lung cancer cells (ratio of IC50 values) is “approximately 5 fold”. The dissociation constant Kd at PRDX1 [7] was 0.06 ± 0.001 nM.

By IC50 is commonly meant the concentration that gives 50% inhibition. What is called Kd is the free concentration of one partner at which half of the binding sites on the other are occupied at equilibrium, for simple one-to-one binding.

The record behind these values is paper PMC12325182, “Discovery of novel and potent celastrol derivatives as PRDX1 inhibitors for cancer therapy through structure-based virtual screening” (Frontiers in Pharmacology, 2025).
